From BindingDB's records for doi:10.1016/j.bmcl.2003.10.023 (Boehringer Ingelheim (Canada), 2003)

Test: Inhibitory activity against calf thymus RNA polymerase

Compound | IC50
O=C(O)c1ccc2c(c1)nc(-c1ncc[nH]1)n2C1CCCCC1 [1-Cyclohexyl-2-(1H-imidazol-2-yl)-1H-benzoimidazole-5-carboxylic acid] | > 500 µM
O=C(O)c1ccc2c(c1)nc(-c1ccc[nH]1)n2C1CCCCC1 [1-Cyclohexyl-2-(1H-pyrrol-2-yl)-1H-benzoimidazole-5-carboxylic acid] | > 500 µM
O=C(O)c1ccc2c(c1)nc(-c1ccco1)n2C1CCCCC1 [1-Cyclohexyl-2-furan-2-yl-1H-benzoimidazole-5-carboxylic acid] | > 500 µM
O=C(O)c1ccc2c(c1)nc(-c1nccs1)n2C1CCCCC1 [1-Cyclohexyl-2-thiazol-2-yl-1H-benzoimidazole-5-carboxylic acid] | > 500 µM
O=C(O)c1ccc2c(c1)nc(-c1cccs1)n2C1CCCCC1 [1-Cyclohexyl-2-thiophen-2-yl-1H-benzoimidazole-5-carboxylic acid] | > 500 µM
O=C(O)c1ccc2c(c1)nc(-c1ccsc1)n2C1CCCCC1 [1-Cyclohexyl-2-thiophen-3-yl-1H-benzoimidazole-5-carboxylic acid] | > 500 µM
O=C(O)c1ccc2c(c1)nc(-c1ccccc1)n2C1CCCCC1 [1-cyclohexyl-2-phenyl-1H-benzo[d]imidazole-5-carboxylic acid] | > 500 µM
